PubChem BioAssay (NCI)
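1) Cells in 96-well plates. 2) Compound, 48 h, 5 concentrations. 3) Linear interpolation between surrounding doses. 4) Unreached endpoint = highest concentration. GI50 = concentration required for 50% inhibition of growth. TGI: concentration producing complete growth inhibition.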

Key:
Test in all cases: NCI tumour cell line growth inhibition, 48 h
COLO 205 colon = test system: COLO 205 colon
OVCAR-4 ovarian = test system: OVCAR-4 ovarian
MCF7 breast = test system: MCF7 breast
HCT-15 colon = test system: HCT-15 colon
UO-31 renal = test system: UO-31 renal
OVCAR-8 ovarian = test system: OVCAR-8 ovarian
HCT-116 colon = test system: HCT-116 colon
LOX IMVI melanoma = test system: LOX IMVI melanoma
HL-60(TB) leukemia = test system: HL-60(TB) leukemia
SNB-75 CNS = test system: SNB-75 CNS

Structure (SMILES): Cc1ccc(-c2cc(-c3ccc(C)cc3)nc(N3CCN(CCNc4ccnc5cc(Cl)ccc45)CC3)n2)cc1
- GI50 (COLO 205 colon): 1710 nM
- TGI (COLO 205 colon): 8.76 µM
- GI50 (OVCAR-4 ovarian): 912 nM
- TGI (OVCAR-4 ovarian): 1.9 µM
- GI50 (MCF7 breast): 2110 nM
- TGI (MCF7 breast): 13.4 µM
- GI50 (HCT-15 colon): 3420 nM
- TGI (HCT-15 colon): 24.5 µM
- GI50 (UO-31 renal): 1160 nM
- TGI (UO-31 renal): 5.53 µM
- GI50 (OVCAR-8 ovarian): 2170 nM
- TGI (OVCAR-8 ovarian): 9.65 µM
- GI50 (HCT-116 colon): 1660 nM
- TGI (HCT-116 colon): 6.91 µM
- GI50 (LOX IMVI melanoma): 1820 nM
- TGI (LOX IMVI melanoma): 6.07 µM
- GI50 (HL-60(TB) leukemia): 2420 nM
- TGI (HL-60(TB) leukemia): 11.6 µM
- GI50 (SNB-75 CNS): 949 nM
- TGI (SNB-75 CNS): 2.23 µM

Structure (SMILES): O=C1CC(c2ccsc2)c2snc(-c3ccc(Cl)cc3)c2N1 (centres undefined)
- GI50 (COLO 205 colon): 527 nM
- TGI (COLO 205 colon): 2.57 µM
- GI50 (OVCAR-4 ovarian): 5600 nM
- TGI (OVCAR-4 ovarian): > 100 µM
- GI50 (MCF7 breast): 563 nM
- TGI (MCF7 breast): > 100 µM
- GI50 (HCT-15 colon): 489 nM
- TGI (HCT-15 colon): > 100 µM
- GI50 (UO-31 renal): 3860 nM
- TGI (UO-31 renal): > 100 µM
- GI50 (OVCAR-8 ovarian): 3010 nM
- TGI (OVCAR-8 ovarian): > 100 µM
- GI50 (HCT-116 colon): 515 nM
- TGI (HCT-116 colon): > 100 µM
- GI50 (LOX IMVI melanoma): 1000 nM
- TGI (LOX IMVI melanoma): > 100 µM
- GI50 (HL-60(TB) leukemia): 1110 nM
- TGI (HL-60(TB) leukemia): 3.33 µM
- GI50 (SNB-75 CNS): 1710 nM
- TGI (SNB-75 CNS): 9.71 µM

Structure (SMILES): O=C1/C(=C/c2ccc(Cl)cc2)CN(C(=O)CCN2CCC(=NO)CC2)C/C1=C\c1ccc(Cl)cc1
- GI50 (COLO 205 colon): 345 nM
- TGI (COLO 205 colon): 1.32 µM
- GI50 (OVCAR-4 ovarian): 834 nM
- TGI (OVCAR-4 ovarian): 2.39 µM
- GI50 (MCF7 breast): 284 nM
- TGI (MCF7 breast): 1.59 µM
- GI50 (HCT-15 colon): 383 nM
- TGI (HCT-15 colon): 1.38 µM
- GI50 (UO-31 renal): 1010 nM
- TGI (UO-31 renal): 2.3 µM
- GI50 (OVCAR-8 ovarian): 823 nM
- TGI (OVCAR-8 ovarian): 2.62 µM
- GI50 (HCT-116 colon): 245 nM
- TGI (HCT-116 colon): 0.654 µM
- GI50 (LOX IMVI melanoma): 224 nM
- TGI (LOX IMVI melanoma): 0.57 µM
- GI50 (HL-60(TB) leukemia): 1370 nM
- TGI (HL-60(TB) leukemia): 4.9 µM
- GI50 (SNB-75 CNS): 1310 nM
- TGI (SNB-75 CNS): 2.61 µM

Structure (SMILES): O=C(Nc1ccc(Oc2ccc(NC(=O)Nc3ccc([N+](=O)[O-])cc3)cc2)cc1)Nc1ccc([N+](=O)[O-])cc1
- GI50 (COLO 205 colon): 1630 nM
- TGI (COLO 205 colon): 3.22 µM
- GI50 (OVCAR-4 ovarian): 2070 nM
- TGI (OVCAR-4 ovarian): > 100 µM
- GI50 (MCF7 breast): 1680 nM
- TGI (MCF7 breast): 6.22 µM
- GI50 (HCT-15 colon): 1910 nM
- TGI (HCT-15 colon): 13.7 µM
- GI50 (UO-31 renal): 516 nM
- TGI (UO-31 renal): > 26.4 µM
- GI50 (OVCAR-8 ovarian): 3170 nM
- TGI (OVCAR-8 ovarian): > 100 µM
- GI50 (HCT-116 colon): 1170 nM
- TGI (HCT-116 colon): 9.19 µM
- GI50 (LOX IMVI melanoma): 1780 nM
- TGI (LOX IMVI melanoma): 10.7 µM
- GI50 (HL-60(TB) leukemia): 787 nM
- TGI (HL-60(TB) leukemia): 3.41 µM
- GI50 (SNB-75 CNS): 2780 nM
- TGI (SNB-75 CNS): > 100 µM

Structure (SMILES): O=C(Cn1c(C(=O)c2ccc(Cl)cc2)nc(-c2ccccc2)c1-c1ccccc1)c1ccc(Cl)cc1
- GI50 (COLO 205 colon): > 100000 nM
- TGI (COLO 205 colon): > 100 µM
- GI50 (OVCAR-4 ovarian): > 100000 nM
- TGI (OVCAR-4 ovarian): > 100 µM
- GI50 (MCF7 breast): > 100000 nM
- TGI (MCF7 breast): > 100 µM
- GI50 (HCT-15 colon): > 100000 nM
- TGI (HCT-15 colon): > 100 µM
- GI50 (UO-31 renal): > 100000 nM
- TGI (UO-31 renal): > 100 µM
- GI50 (OVCAR-8 ovarian): > 100000 nM
- TGI (OVCAR-8 ovarian): > 100 µM
- GI50 (HCT-116 colon): > 100000 nM
- TGI (HCT-116 colon): > 100 µM
- GI50 (LOX IMVI melanoma): > 100000 nM
- TGI (LOX IMVI melanoma): > 100 µM
- GI50 (HL-60(TB) leukemia): > 100000 nM
- TGI (HL-60(TB) leukemia): > 100 µM
- GI50 (SNB-75 CNS): > 100000 nM
- TGI (SNB-75 CNS): > 100 µM

Structure (SMILES): CCOC(=O)Cn1c(-c2nonc2NC(=O)c2ccccc2F)nc2ccccc21
- GI50 (COLO 205 colon): > 35600 nM
- TGI (COLO 205 colon): > 100 µM
- GI50 (OVCAR-4 ovarian): 11800 nM
- TGI (OVCAR-4 ovarian): > 100 µM
- GI50 (MCF7 breast): 1640 nM
- TGI (MCF7 breast): > 100 µM
- GI50 (HCT-15 colon): 109 nM
- TGI (HCT-15 colon): > 100 µM
- GI50 (UO-31 renal): 28100 nM
- TGI (UO-31 renal): > 100 µM
- GI50 (OVCAR-8 ovarian): 739 nM
- TGI (OVCAR-8 ovarian): > 60.1 µM
- GI50 (HCT-116 colon): 434 nM
- TGI (HCT-116 colon): > 100 µM
- GI50 (LOX IMVI melanoma): 309 nM
- TGI (LOX IMVI melanoma): > 100 µM
- TGI (HL-60(TB) leukemia): > 100 µM
- GI50 (SNB-75 CNS): 4290 nM
- TGI (SNB-75 CNS): 46 µM

Structure (SMILES): COc1cc(OC)c(F)c(COc2cnc(Nc3cnn(CCO)c3)nc2)c1F
- GI50 (COLO 205 colon): 607 nM
- TGI (COLO 205 colon): 3.14 µM
- GI50 (OVCAR-4 ovarian): 617 nM
- TGI (OVCAR-4 ovarian): > 100 µM
- GI50 (MCF7 breast): 417 nM
- TGI (MCF7 breast): > 100 µM
- GI50 (HCT-15 colon): 482 nM
- TGI (HCT-15 colon): > 100 µM
- GI50 (UO-31 renal): 556 nM
- TGI (UO-31 renal): > 20.5 µM
- GI50 (OVCAR-8 ovarian): 2240 nM
- TGI (OVCAR-8 ovarian): > 100 µM
- GI50 (HCT-116 colon): 386 nM
- TGI (HCT-116 colon): > 100 µM
- GI50 (LOX IMVI melanoma): 526 nM
- TGI (LOX IMVI melanoma): > 22.6 µM
- GI50 (HL-60(TB) leukemia): 245 nM
- TGI (HL-60(TB) leukemia): 0.702 µM
- GI50 (SNB-75 CNS): 203 nM
- TGI (SNB-75 CNS): 2.32 µM

Structure (SMILES): O=C1/C(=C/c2ccc(Cl)cc2)CCC1CN1CCOCC1 (centres undefined)
- TGI (COLO 205 colon): > 25.3 µM
- TGI (OVCAR-4 ovarian): 34.1 µM
- TGI (MCF7 breast): 21 µM
- TGI (HCT-15 colon): 11.6 µM
- TGI (UO-31 renal): 22.4 µM
- TGI (OVCAR-8 ovarian): 17.2 µM
- TGI (HCT-116 colon): 17.8 µM
- TGI (LOX IMVI melanoma): 5.24 µM
- TGI (HL-60(TB) leukemia): 3.8 µM
- TGI (SNB-75 CNS): 37.9 µM
